# Assay results published in ChEMBL document CHEMBL1126095, “Incorporation of a novel conformationally restricted tyrosine analog into a cyclic, delta opioid receptor selective tetrapeptide (JOM-13) enhances delta receptor binding affinity and selectivity” (J Med Chem, 1992).
# Positions of bridges follow the written chain, without caps; N, C: chain ends. Non-standard residues stand in square brackets, D forms with d. Residues, ends and D or L forms follow the SMILES beside them. Pen = CC(C)(S)[C@H](N)C(=O)O
# Assays:
# [1] = molecular target: Mu-type opioid receptor (Cavia porcellus, UniProt P97266); test: Binding affinity against opioid receptor mu in guinea pig brain homogenates, using [3H]DAMGO as radioligand.; type: tissue-based
# [2] = molecular target: Kappa-type opioid receptor (Cavia porcellus, UniProt P41144); test: Binding affinity against opioid receptor kappa from guinea pig brain homogenates, using [3H]U-69593 as radioligand.; type: tissue-based
# [3] = Binding affinity against Opioid receptor delta 1 in guinea pig brain homogenates, using [3H]DPDPE as radioligand.
# Chain of Mu-type opioid receptor (P97266 whole entry): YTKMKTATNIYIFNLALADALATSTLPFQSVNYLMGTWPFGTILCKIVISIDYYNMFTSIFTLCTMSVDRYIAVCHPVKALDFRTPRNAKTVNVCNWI
# Chain of Kappa-type opioid receptor (P41144 whole entry): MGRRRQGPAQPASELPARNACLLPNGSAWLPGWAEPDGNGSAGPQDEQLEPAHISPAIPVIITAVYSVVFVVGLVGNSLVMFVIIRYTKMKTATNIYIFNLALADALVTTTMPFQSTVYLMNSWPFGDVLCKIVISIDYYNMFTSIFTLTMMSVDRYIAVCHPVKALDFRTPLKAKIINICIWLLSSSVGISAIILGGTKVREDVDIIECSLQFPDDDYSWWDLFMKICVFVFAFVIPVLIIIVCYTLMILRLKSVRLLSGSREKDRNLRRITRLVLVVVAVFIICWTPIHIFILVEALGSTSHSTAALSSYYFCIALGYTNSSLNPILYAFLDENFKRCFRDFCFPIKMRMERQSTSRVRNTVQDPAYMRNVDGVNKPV
Compound,Ki [1] [µM],Ki [2] [µM],Ki [3] [µM]
CC1(C)SSC[C@@H](NC(=O)[C@H]2NCC[C@@H]2c2ccc(O)cc2)C(=O)N[C@@H](Cc2ccccc2)C(=O)N[C@@H]1C(=O)O,0.105,10,
CC1(C)SSC[C@@H](NC(=O)[C@@H]2NCC[C@@H]2c2ccc(O)cc2)C(=O)N[C@@H](Cc2ccccc2)C(=O)N[C@@H]1C(=O)O,10,> 10,
CC1(C)SSC[C@H](NC(=O)[C@@H](N)Cc2ccc(O)cc2)C(=O)N[C@@H](Cc2ccccc2)C(=O)N[C@@H]1C(=O)O (H-YCF[Pen]-OH; disulfide 2-4),,,0.00179
